Patent US9670142B2, “1,3-diaminocyclopentane carboxamide derivatives” (Merck Patent GmbH, priority 2013, dated 2017)

target: human fatty acid synthase FASN (Homo sapiens (Human), UniProt P49327); assay: Biochemical activity testing of human fatty acid synthase FASN (NADPH fluorescence intensity enzyme assay); details: human recombinant full-length fatty acid synthase
Method in brief: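 In-house Sf9-expressed full-length enzyme (3 μL of 40 nM) in 50 mM potassium phosphate pH 7.0 with glutathione, BSA and Tween-20, plus NADPH (2 μL of 200 μM), preincubated ≥15 min with compound (10 concentrations from 30 μM final, 1% DMSO). Acetyl-CoA/malonyl-CoA added; NADPH fluorescence (ex 340/em 460 nm) read before and after 30 min at room temperature, difference used for IC50.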

Sequence of human fatty acid synthase FASN (P49327 whole entry): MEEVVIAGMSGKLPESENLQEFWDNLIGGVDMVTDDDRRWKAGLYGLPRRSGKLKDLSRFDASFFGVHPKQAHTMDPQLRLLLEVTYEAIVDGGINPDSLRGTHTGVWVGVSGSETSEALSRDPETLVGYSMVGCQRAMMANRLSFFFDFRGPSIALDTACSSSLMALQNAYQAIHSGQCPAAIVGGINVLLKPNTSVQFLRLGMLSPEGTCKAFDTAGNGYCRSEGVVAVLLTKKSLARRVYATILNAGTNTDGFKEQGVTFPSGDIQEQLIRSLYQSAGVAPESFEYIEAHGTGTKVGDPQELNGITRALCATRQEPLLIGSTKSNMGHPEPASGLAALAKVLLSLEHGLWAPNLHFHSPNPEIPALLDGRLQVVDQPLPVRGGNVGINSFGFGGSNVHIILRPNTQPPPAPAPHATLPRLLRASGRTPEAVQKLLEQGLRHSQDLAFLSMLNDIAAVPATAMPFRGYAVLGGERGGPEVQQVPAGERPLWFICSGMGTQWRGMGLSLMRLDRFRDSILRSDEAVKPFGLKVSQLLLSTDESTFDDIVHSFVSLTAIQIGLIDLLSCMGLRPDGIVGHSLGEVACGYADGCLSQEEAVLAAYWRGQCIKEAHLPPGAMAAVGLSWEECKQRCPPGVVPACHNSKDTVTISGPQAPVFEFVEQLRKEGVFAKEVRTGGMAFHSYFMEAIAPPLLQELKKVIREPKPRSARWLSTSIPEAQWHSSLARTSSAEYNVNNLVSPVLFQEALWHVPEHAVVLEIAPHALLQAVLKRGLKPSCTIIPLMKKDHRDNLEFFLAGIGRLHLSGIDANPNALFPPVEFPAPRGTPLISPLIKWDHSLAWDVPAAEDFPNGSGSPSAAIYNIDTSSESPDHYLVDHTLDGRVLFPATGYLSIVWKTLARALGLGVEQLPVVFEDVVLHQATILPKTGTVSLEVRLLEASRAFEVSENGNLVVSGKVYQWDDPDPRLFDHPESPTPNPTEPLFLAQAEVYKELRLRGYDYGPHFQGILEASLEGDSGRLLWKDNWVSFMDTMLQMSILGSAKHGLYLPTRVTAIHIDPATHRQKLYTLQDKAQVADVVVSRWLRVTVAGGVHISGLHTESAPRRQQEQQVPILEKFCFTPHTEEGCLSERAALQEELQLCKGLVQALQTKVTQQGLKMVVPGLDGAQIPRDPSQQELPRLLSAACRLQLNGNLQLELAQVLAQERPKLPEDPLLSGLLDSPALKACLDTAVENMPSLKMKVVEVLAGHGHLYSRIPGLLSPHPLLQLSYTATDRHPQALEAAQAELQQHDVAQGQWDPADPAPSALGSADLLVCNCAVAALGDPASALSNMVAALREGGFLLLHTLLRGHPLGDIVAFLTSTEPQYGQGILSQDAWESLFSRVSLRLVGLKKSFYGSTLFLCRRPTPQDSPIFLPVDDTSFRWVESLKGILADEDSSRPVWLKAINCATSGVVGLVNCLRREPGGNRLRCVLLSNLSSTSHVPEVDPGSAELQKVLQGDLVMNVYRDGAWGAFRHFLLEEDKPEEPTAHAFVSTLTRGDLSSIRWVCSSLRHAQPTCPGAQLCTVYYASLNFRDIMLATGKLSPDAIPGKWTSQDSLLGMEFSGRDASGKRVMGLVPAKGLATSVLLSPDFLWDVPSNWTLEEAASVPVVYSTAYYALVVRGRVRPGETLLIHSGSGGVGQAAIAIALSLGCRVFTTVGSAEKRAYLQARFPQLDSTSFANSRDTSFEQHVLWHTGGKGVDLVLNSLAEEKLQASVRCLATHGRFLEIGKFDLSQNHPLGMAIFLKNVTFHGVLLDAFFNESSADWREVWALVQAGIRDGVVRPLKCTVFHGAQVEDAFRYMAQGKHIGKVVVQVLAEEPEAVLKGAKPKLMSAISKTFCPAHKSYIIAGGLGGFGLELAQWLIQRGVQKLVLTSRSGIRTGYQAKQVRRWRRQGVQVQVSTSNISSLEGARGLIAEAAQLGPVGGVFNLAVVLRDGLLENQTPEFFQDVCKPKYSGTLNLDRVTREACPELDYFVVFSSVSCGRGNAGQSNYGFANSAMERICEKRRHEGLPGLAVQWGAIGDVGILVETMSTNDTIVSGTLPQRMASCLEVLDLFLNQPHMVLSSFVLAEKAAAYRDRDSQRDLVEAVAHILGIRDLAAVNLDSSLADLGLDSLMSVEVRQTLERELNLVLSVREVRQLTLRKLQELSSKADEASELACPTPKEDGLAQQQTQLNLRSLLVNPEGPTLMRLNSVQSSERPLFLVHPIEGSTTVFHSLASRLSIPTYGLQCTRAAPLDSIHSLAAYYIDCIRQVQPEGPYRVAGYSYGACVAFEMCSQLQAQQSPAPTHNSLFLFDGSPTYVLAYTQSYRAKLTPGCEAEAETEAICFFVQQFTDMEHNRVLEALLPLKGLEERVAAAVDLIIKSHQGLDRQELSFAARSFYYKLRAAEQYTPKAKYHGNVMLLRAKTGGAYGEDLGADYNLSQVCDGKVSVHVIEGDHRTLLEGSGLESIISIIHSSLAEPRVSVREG

`CCC(=O)N[C@H]1CC[C@@H](N(C)C(=O)c2ccc(C#Cc3ccncc3)cc2)C1` [Compound A15, N-methyl-N-((1R,3S)-3-propionylamino-cyclopentyl)-4-pyridin-4-ylethynyl-benzamide] and `CCC(=O)N[C@H]1CC[C@@H](N(C)C(=O)c2ccc(-c3ccc(Cl)cc3F)cc2)C1` [Compound A92, 4′-chloro-2′-fluoro-biphenyl-4-carboxylic acid methyl-((1R,3S)-3-propionylamino-cyclopentyl)-amide] cannot be ordered by IC50: less than 0.3 µM for the first, less than 0.3 µM for the second.

`CCC(=O)N[C@H]1CC[C@@H](N(C)C(=O)c2ccc(-c3ccc(C(=O)OC)c(F)c3)cc2)C1` [Compound A69, 3-fluoro-4′-[methyl-((1R,3S)-3-propionylamino-cyclopentyl)-carbamoyl]-biphenyl-4-carboxylic acid methyl ester] and `CCC(=O)N[C@H]1CC[C@@H](N(C)C(=O)c2ccc(-c3ccc4c(ccn4C)c3)cc2)C1` [Compound A80, N-methyl-4-(1-methyl-1H-indol-5-yl)-N-((1R,3S)-3-propionylamino-cyclopentyl)-benzamide] cannot be ordered by IC50: less than 0.3 µM for the first, less than 0.3 µM for the second.

Compared with `CC[C@@H](C)CC(=O)N[C@@H]1CC[C@@H](N(C)C(=O)c2ccc(-c3nc4ccccc4o3)cc2)C1` [Compound A168, 4-benzoxazol-2-yl-N-methyl-N-[(1R,3R)-3-((R)-3-methyl-pentanoylamino)-cyclopentyl]-benzamide], `CCC(=O)N[C@H]1CC[C@@H](N(C)C(=O)c2cnc(-c3ccc4[nH]ccc4c3)cn2)C1` [Compound A132, 5-(1H-indol-5-yl)-pyrazine-2-carboxylic acid methyl-((1R,3S)-3-propionylamino-cyclopentyl)-amide] is lower in IC50: 3 to 50 µM for the first, less than 0.3 µM for the second.

With `CCC(=O)N[C@H]1CC[C@@H](N(C)C(=O)c2ncc(-c3ccc4c(ccn4C)c3)cn2)C1` [Compound A133, 5-(1-methyl-1H-indol-5-yl)-pyrimidine-2-carboxylic acid methyl-((1R,3S)-3-propionylamino-cyclopentyl)-amide] the IC50 was less than 0.3 µM.
